Data as given in patent US8435978B2, “Substituted sulfonamide compounds” (Gruenenthal GmbH, priority 2006, dated 2013).
Counter-ions that a name gives are not always drawn.

Legend:
human B1R receptor = target: T1, human B1R receptor (Homo sapiens, UniProt P46663); assay: Functional study on the bradykinin receptor 1 (B1R), FLIPR Ca2+ assay, hB1R cells; format: cell-based; settings: CHO-K1, test substance 10 μM, agonist Lys-Des-Arg9-bradykinin 0.5 nM, % inhibition compared with the maximum achievable inhibition, read-out: B1R Antagonism, human [10 μM] % Inhibition
T1 construct: host or cells: CHO K1 cells (Chinese hamster ovary), stably transfected
T1 sequence (P46663 1-353): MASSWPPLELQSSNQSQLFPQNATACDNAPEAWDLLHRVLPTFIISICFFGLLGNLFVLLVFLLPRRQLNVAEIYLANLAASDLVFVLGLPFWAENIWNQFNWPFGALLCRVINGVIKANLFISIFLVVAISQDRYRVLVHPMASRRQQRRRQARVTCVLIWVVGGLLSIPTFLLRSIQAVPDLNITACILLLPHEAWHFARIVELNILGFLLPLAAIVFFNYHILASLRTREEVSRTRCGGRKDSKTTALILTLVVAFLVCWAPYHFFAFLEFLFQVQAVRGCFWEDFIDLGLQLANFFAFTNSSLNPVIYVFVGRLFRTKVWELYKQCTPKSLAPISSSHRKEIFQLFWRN
Experimental: (§1) The agonistic or antagonistic action of substances can be quantified on the bradykinin receptor 1 (B1R) of the species human and rat with ectopically expressing cell lines (CHO K1 cells) and with the aid of a Ca^2+-sensitive dye (Fluo-4) using a fluorescent imaging plate reader (FLIPR). The indication in % activation is based on the Ca^2+ signal after addition of Lys-Des-Arg^9-bradykinin (0.5 nM) or Des-Arg^9-bradykinin (100 nM). Antagonists result in a suppression of the Ca^2+ influx following administration of the agonist. The % inhibition in comparison with the maximum achievable inhibition is indicated.
(§2) The agonistic or antagonistic action of substances can be determined on the bradykinin receptor 1 (B1R) of the species human and rat using the following assay. According to this assay, the Ca^2+ influx through the channel is quantified with the aid of a Ca^2+-sensitive dye (type Fluo-4, Molecular Probes Europe BV, Leiden, Netherlands) using a Fluorescent Imaging Plate Reader (FLIPR, Molecular Devices, Sunnyvale, USA).
(§3) Chinese hamster ovary cells (CHO K1 cells) which have been stably transfected with the human B1R gene (hB1R cells, Euroscreen s.a., Gosselies, Belgium) or with the B1R gene of the rat (rB1R cells, Axxam, Milan, Italy) are used. For functional studies, the cells are plated out on black 96-well plates having a clear base (BD Biosciences, Heidelberg, Germany) in a density of 20,000-25,000 cells/well. The cells are incubated overnight at 37° C. and with 5% CO2 in culture medium (hB1R cells: Nutrient Mixture Ham's F12, Gibco Invitrogen GmbH, Karlsruhe, Germany; rB1R cells: D-MEM/F12, Gibco Invitrogen GmbH, Karlsruhe, Germany), with 10 vol. % FBS (fetal bovine serum, Gibco Invitrogen GmbH, Karlsruhe, Germany). On the following day, the cells are loaded for 60 minutes at 37° C. with 2.13 μM Fluo-4 (Molecular Probes Europe BV, Leiden, Netherlands) in HBSS buffer (Hank's buffered saline solution, Gibco Invitrogen GmbH, Karlsruhe, Germany) […] (Sigma-Aldrich, Taufkirchen, Germany) and 10 mM HEPES (Sigma-Aldrich, Taufkirchen, Germany). The plates are then washed twice with HBSS buffer, and HBSS buffer additionally containing 0.1% BSA (bovine serum albumin; Sigma-Aldrich, Taufkirchen, Germany), 5.6 mM glucose and 0.05% gelatin (Merck KGaA, Darmstadt, Germany) is added to the plates. After incubation for a further 20 minutes at room temperature, the plates are inserted into the FLIPR for Ca^2+ measurement. The Ca^2+-dependent fluorescence is measured before and after the addition of substances (λex=488 nm, λem=540 nm). Quantification is carried out by measuring the highest fluorescence intensity (FC, fluorescence counts) over time.
(§4) The FLIPR protocol consists of 2 substance additions. Test substances (10 μM) are first pipetted onto the cells and the Ca^2+ influx is compared with the control (hB1R: Lys-Des-Arg^9-bradykinin 0.5 nM; rB1R: Des-Arg^9-bradykinin 100 nM). This gives the activation in %, based on the Ca^2+ signal after addition of Lys-Des-Arg^9-bradykinin (0.5 nM) or Des-Arg^9-bradykinin (100 nM).
(§5) After 10 minutes' incubation, 0.5 nM Lys-Des-Arg^9-bradykinin (hB1R) or 100 nM Des-Arg^9-bradykinin (rB1R) are applied, and the influx of Ca^2+ is likewise determined. Antagonists lead to suppression of the Ca^2+ influx. The % inhibition compared with the maximum achievable inhibition is calculated.

B1R receptor of the rat = target: T2, B1R receptor of the rat (Rattus norvegicus, UniProt P97583); assay: Functional study on the bradykinin receptor 1 (B1R), FLIPR Ca2+ assay, rB1R cells; format: cell-based; settings: CHO-K1, test substance 10 μM, agonist Des-Arg9-bradykinin 100 nM, % inhibition compared with the maximum achievable inhibition, read-out: B1R Antagonism, rat [10 μM] % Inhibition
T2 construct: host or cells: CHO K1 cells (Chinese hamster ovary), stably transfected
T2 sequence (P97583 1-337): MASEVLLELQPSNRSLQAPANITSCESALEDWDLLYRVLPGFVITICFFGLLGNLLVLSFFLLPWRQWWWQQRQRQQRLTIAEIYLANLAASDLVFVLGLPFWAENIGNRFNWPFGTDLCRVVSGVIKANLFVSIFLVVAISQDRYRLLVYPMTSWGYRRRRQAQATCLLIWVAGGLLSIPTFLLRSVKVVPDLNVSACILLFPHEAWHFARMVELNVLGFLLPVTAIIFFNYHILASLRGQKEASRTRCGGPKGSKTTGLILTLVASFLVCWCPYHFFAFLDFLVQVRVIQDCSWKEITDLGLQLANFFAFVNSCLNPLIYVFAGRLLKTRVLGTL
Experimental: as §1, §2, §3, §4, §5

Row | SMILES | inhibition at 10 µM (human B1R receptor) [%] | inhibition at 10 µM (B1R receptor of the rat) [%]
1 | COc1cc(C)c(S(=O)(=O)N2CCC[C@H]2COCC(=O)N2CCC(CCN3CCCC3)CC2)c(C)c1 [Example 190, (S)-2-((1-(4-methoxy-2,6-dimethylphenylsulfonyl)pyrrolidin-2-yl)methoxy)-1-(4-(2-(pyrrolidin-1-yl)ethyl)piperidin-1-yl)ethanone hydrochloride] | 102 | 102
2 | COc1cc(C)c(S(=O)(=O)N2CCCC2COCC(=O)NCc2ccc(CN3CCOCC3)cc2)c(C)c1 (stereo not shown) [Example 55, 2-[1-(4-methoxy-2,6-dimethyl-phenylsulfonyl)-pyrrolidin-2-ylmethoxy]-N-(4-morpholin-4-ylmethyl-benzyl)-acetamide] | 63.2 | 88.8
3 | COc1cc(C)c(S(=O)(=O)N2CCCCC2COCC(=O)N2CCC(c3nc(-c4ccncc4)no3)CC2)c(C)c1 (stereo not shown) [Example 103, 2-((1-(4-methoxy-2,6-dimethylphenylsulfonyl)piperidin-2-yl)methoxy)-1-(4-(3-(pyridin-4-yl)-1,2,4-oxadiazol-5-yl)piperidin-1-yl)ethanone] | 105 | 100
4 | COc1cc(C)c(S(=O)(=O)N2CCCCC2COCC(=O)N2CCC(Oc3cccnc3)CC2)c(C)c1 (stereo not shown) [Example 165, 2-((1-(4-methoxy-2,6-dimethylphenylsulfonyl)piperidin-2-yl)methoxy)-1-(4-(pyridin-3-yloxy)piperidin-1-yl)ethanone] | 97.1 | 96.8
5 | CCN(CCCNC(=O)COCC1CCCCN1S(=O)(=O)c1c(C)cc(OC)cc1C)c1ccccc1 (stereo not shown) [Example 424, N-(3-(ethyl(phenyl)amino)propyl)-2-((1-(4-methoxy-2,6-dimethylphenylsulfonyl)piperidin-2-yl)methoxy)acetamide] | 35.1 | 97.6
6 | COc1cc(C)c(S(=O)(=O)N2CCCCC2COCC(=O)N2CCN(CCC#N)CC2)c(C)c1 (stereo not shown) [Example 410, 3-(4-(2-((1-(4-methoxy-2,6-dimethylphenylsulfonyl)piperidin-2-yl)methoxy)acetyl)piperazin-1-yl)propanenitrile] | 102 | 103
7 | CN1CCC(N2CCN(C(=O)COCC3CCCCN3S(=O)(=O)c3cccc4c(N(C)C)cccc34)CC2)CC1 (stereo not shown) [Example 158, 2-((1-(5-(dimethylamino)naphthalen-1-ylsulfonyl)piperidin-2-yl)methoxy)-1-(4-(1-methylpiperidin-4-yl)piperazin-1-yl)ethanone dihydrochloride] | 98.5 | 99.3
8 | COc1cc(C)c(S(=O)(=O)N2CCCCC2COCC(=O)NCCCN2CCOCC2)c(C)c1 (stereo not shown) [Example 344, 2-((1-(4-methoxy-2,6-dimethylphenylsulfonyl)piperidin-2-yl)methoxy)-N-(3-morpholinopropyl)acetamide] | 48.8 | 88.4
9 | COc1cc(C)c(S(=O)(=O)N2CCCCC2COCC(=O)N2CCC(c3nc4cc(C)ccc4[nH]3)CC2)c(C)c1 (stereo not shown) [Example 397, 2-((1-(4-methoxy-2,6-dimethylphenylsulfonyl)piperidin-2-yl)methoxy)-1-(4-(5-methyl-1H-benzo[d]imidazol-2-yl)piperidin-1-yl)ethanone] | 97.2 | 101
10 | COc1cc(C)c(S(=O)(=O)N2CCCCC2COCC(=O)NCCN2CCN(Cc3ccccc3)CC2)c(C)c1 (stereo not shown) [Example 401, N-(2-(4-benzylpiperazin-1-yl)ethyl)-2-((1-(4-methoxy-2,6-dimethylphenylsulfonyl)piperidin-2-yl)methoxy)acetamide] | 90.8 | 95.6
11 | COc1cc(C)c(S(=O)(=O)N2CCCC2COCC(=O)N2CCN(c3ccccn3)CC2)c(C)c1 (stereo not shown) [Example 305, 2-((1-(4-methoxy-2,6-dimethylphenylsulfonyl)pyrrolidin-2-yl)methoxy)-1-(4-(pyridin-2-yl)piperazin-1-yl)ethanone] | 76.4 | 95.5
12 | COc1cc(C)c(S(=O)(=O)N2CCCCC2COCC(=O)N2CCN(Cc3nc4ccccc4[nH]3)CC2)c(C)c1 (stereo not shown) [Example 117, 1-(4-((1H-benzo[d]imidazol-2-yl)methyl)piperazin-1-yl)-2-((1-(4-methoxy-2,6-dimethylphenylsulfonyl)piperidin-2-yl)methoxy)ethanone] | 101 | 101
13 | COc1cc(C)c(S(=O)(=O)N2CCCCC2COCC(=O)N2CCN(Cc3cnn(C)c3C)CC2)c(C)c1 (stereo not shown) [Example 198, 1-(4-((1,5-dimethyl-1H-pyrazol-4-yl)methyl)piperazin-1-yl)-2-((1-(4-methoxy-2,6-dimethylphenylsulfonyl)piperidin-2-yl)methoxy)ethanone] | 105 | 99.8
14 | CC(C)N(Cc1ccc(N(C)C)cc1)C(=O)COCC1CCCCN1S(=O)(=O)c1c(Cl)cccc1Cl (stereo not shown) [Example 530, 2-((1-(2,6-dichlorophenylsulfonyl)piperidin-2-yl)methoxy)-N-(4-(dimethylamino)benzyl)-N-isopropylacetamide] | 93.1 | 101
15 | Cc1cc(C)c(S(=O)(=O)N2CCCCC2COCC(=O)NCc2ccccc2N2CCN(C)CC2)c(C)c1 (stereo not shown) [Example 80, N-[2-(4-methyl-piperazin-1-yl)-benzyl]-2-[1-(2,4,6-trimethyl-phenylsulfonyl)-piperidin-2-ylmethoxy]-acetamide] | 45.3 | 22.5
16 | COc1cc(C)c(S(=O)(=O)N2CCCC2COCC(=O)N2CCN(c3cccc(C(F)(F)F)c3)CC2)c(C)c1 (stereo not shown) [Example 465, 2-((1-(4-methoxy-2,6-dimethylphenylsulfonyl)pyrrolidin-2-yl)methoxy)-1-(4-(3-(trifluoromethyl)phenyl)piperazin-1-yl)ethanone] | 102 | 98.8
17 | Cc1cc(C)c(S(=O)(=O)N2Cc3ccccc3CC2COCC(=O)N2CCCN(Cc3ccccc3)CC2)c(C)c1 (stereo not shown) [Example 67, 1-(4-benzyl-[1,4]diazepan-1-yl)-2-[2-(2,4,6-trimethyl-phenylsulfonyl)-1,2,3,4-tetrahydro-isoquinolin-3-ylmethoxy]-ethanone] | 55 | 80.5
